ChEMBL document CHEMBL3886639, “2,5-disubstituted-pyridyl nicotinic ligands, and methods of use thereof” (2016)

Test: [3H]-Epibatidine Radioligand Binding Assay: Briefly, cultured cells at >80% confluence were removed from their flasks (80 cm^2) with a disposable cell scraper and placed in 10 mL of 50 mM Tris.HCl buffer (pH 7.4, 4 °C.). The cell suspension was centrifuged at 10,000×g for 5 min and the pellet was collected. The cell pellet was then homogenized in 10 mL buffer with a polytron homogenizer and centrifuged at 36,000 g for 10 min at 4 °C. The membrane pellet was resuspended in fresh buffer, and aliquots of the membrane preparation were used for binding assays. The concentration of [3H]-epibatidine used was ~500 pM for competition binding assays. […] Bound and free ligands were separated by vacuum filtration through Whatman GF/C filters treated with 0.5% polyethylenimine. The filter-retained radioactivity was measured by liquid scintillation counting. Specific binding was defined as the difference between total binding and nonspecific binding. Data from competition binding assays were analyzed using Prism 5 (GraphPad Software, San Diego, Calif.).

Compound: CCCCC#Cc1cnc(C(F)(F)F)c(OC[C@@H]2CCN2)c1
- Ki: > 100 µM
